Test results taken from US8822172B2, “Method of detecting isolevuglandin phospholipid adducts” (Case Western Reserve University, priority 2009, dated 2014).
Where two headings read alike, the source gives them in different places.

Experiments:
[1] = Ca2^+; cited from earlier work
[2] = Cu^2+; cited from earlier work
[3] = Fe^3+; cited from earlier work
[4] = tested on: hepatic triglycerides; details: short-term model, 2, 4 or 6% ethanol diet for 2 days
Source text: (§2) All procedures using animals were approved by the Cleveland Clinic Foundation Institutional Animal Care and Use Committees. Mice were housed in shoe-box cages (2 animals/cage) with microisolator lids. Standard microisolator handling procedures were used throughout the study. […] Mice were then anesthetized, blood samples taken into non-heparinized syringes from the posterior vena cava, livers blanched with saline via the portal vein and then excised. Portions of each liver were then either fixed in formalin or frozen in optimal cutting temperature (OCT) compound (Sakura Finetek U.S.A., Inc., Torrance Calif.) for histology, frozen in RNAlater (Qiagen, Valencia, Calif.) or flash frozen in liquid nitrogen and stored at −80° C. until further analysis. Blood was transferred to heparin-containing tubes for the isolation of plasma. Plasma was then stored at −80° C.
Formalin-fixed tissues were paraffin embedded, sectioned and stained with hematoxylin and eosin. Sections were coded prior to analysis and examined by two independent individuals. For Oil Red O staining, 10 micron sections were cut from frozen OCT samples and affixed to a microscope slide. Slides were then stored at 4° C. until staining. […] Total liver triglycerides were measured using the Triglyceride Reagent Kit from Pointe Scientific Inc. (Lincoln Park, Mich.).

[5] = tested on: mouse liver; details: chronic ethanol-fed mouse liver (5% wk 4), ELISA and LC/MS
Source text: Mice were housed in shoe-box cages (2 animals/cage) with microisolator lids. Standard microisolator handling procedures were used throughout the study. […] Mice were then anesthetized, blood samples taken into non-heparinized syringes from the posterior vena cava, livers blanched with saline via the portal vein and then excised. Portions of each liver were then either fixed in formalin or frozen in optimal cutting temperature (OCT) compound (Sakura Finetek U.S.A., Inc., Torrance Calif.) for histology, frozen in RNAlater (Qiagen, Valencia, Calif.) or flash frozen in liquid nitrogen and stored at −80° C. until further analysis. Blood was transferred to heparin-containing tubes for the isolation of plasma. Plasma was then stored at −80° C.
Liver homogenates were prepared as described except that 50 μM butylated hydroxytoluene (BHT) and 100 μM diethylenetriamine pentaacetic acid (DTPA) were added to the buffer to prevent aerial oxidation of lipids during homogenization. 50 μg of protein was used in the ELISA.

[6] = tested on: TNF-α; details: long-term ethanol feeding; early peak at 2% d2, later peak at 5% wk 4
Source text: (§1) All procedures using animals were approved by the Cleveland Clinic Foundation Institutional Animal Care and Use Committees. Mice were housed in shoe-box cages (2 animals/cage) with microisolator lids. Standard microisolator handling procedures were used throughout the study. Mice were randomized into ethanol-fed and pair-fed groups and then adapted to control liquid diet for 2 days. The ethanol-fed group was allowed free access to ethanol containing diet with increasing concentrations of ethanol: 1% (vol/vol) and 2% each for 2 days, then 4% ethanol for 7 d, and finally 5% ethanol for a further 4 weeks. For the dose-response experiment, mice were allowed free access to 1% ethanol for 2 days and then 2%, 4% or 6% ethanol for a further 2 days. Control mice were pair-fed diets which iso-calorically substituted maltose dextrins for ethanol over the entire feeding period. Mice were then anesthetized, blood samples taken into non-heparinized syringes from the posterior vena cava, livers blanched with saline via the portal vein and then excised. Portions of each liver were then either fixed in formalin or frozen in optimal cutting temperature (OCT) compound (Sakura Finetek U.S.A., Inc., Torrance Calif.) for histology, frozen in RNAlater (Qiagen, Valencia, Calif.) or flash frozen in liquid nitrogen and stored at −80° C. until further analysis. […]

[7] = tested on: mouse liver; details: short-term model of ethanol exposure, 2, 4 or 6% for 2 days
Source text: as §1

[8] = tested on: CYP2E1; details: chronic ethanol feeding, maximum at 5% wk 2
Source text: All procedures using animals were approved by the Cleveland Clinic Foundation Institutional Animal Care and Use Committees. Mice were housed in shoe-box cages (2 animals/cage) with microisolator lids. Standard microisolator handling procedures were used throughout the study. […] Mice were then anesthetized, blood samples taken into non-heparinized syringes from the posterior vena cava, livers blanched with saline via the portal vein and then excised. Portions of each liver were then either fixed in formalin or frozen in optimal cutting temperature (OCT) compound (Sakura Finetek U.S.A., Inc., Torrance Calif.) for histology, frozen in RNAlater (Qiagen, Valencia, Calif.) or flash frozen in liquid nitrogen and stored at −80° C. until further analysis. […]
0.5-1.0 g of frozen liver tissue was homogenized in 10 ml/g tissue in lysis buffer (50 mM Tris-HCl, pH7.4, 1% NP-40, 0.25% Na-deoxycholate, 150 mM NaCl, 1 mM EDTA with added protease inhibitors Complete™ (Roche Diagnostics, Mannheim, Germany), 17.5 μg/ml aprotinin, 5 μg/ml bestatin, 10 μg/ml leupeptin, 1 mg/ml bacitracin, and 20 μg/ml E64) and phosphatase inhibitors (1 mM vanadate and 10 mM Na pyrophosphate)) using 15 strokes in a glass on glass homogenizer (loose pestle). […] Protein concentrations were measured. […] Bound antibody was detected by chemiluminescence. Immunoreactive protein quantity was assessed by scanning densitometry.

[9] = tested on: plasma ALT; details: short-term model, 2, 4 or 6% ethanol diet for 2 days
Source text: as §2
Plasma samples were assayed for alanine aminotransferase (ALT) using a commercially available enzymatic assay kit (Diagnostic Chemicals, LTD, Oxford, Conn.) following the manufacturer's instructions.

[10] = tested on: mouse liver; details: chronic ethanol-fed vs pair-fed mice, P=0.00021
Experimental: The tissue was homogenized manually using a Teflon-coated stainless steel pestle. After homogenization, the resulting mixture was placed in a 4° C. freezer for 30 min to maximize the lipid extraction efficiency. An aqueous solution of sodium chloride (1.5%, w/w, 1/4 the volume of the organic extract) was added. The resulting mixture was centrifuged at 3000 rpm for 15 min. The lower layer containing the lipids was carefully withdrawn with a polyethylene transfer pipette, making sure to avoid the interface or upper layer. The solvents were then evaporated under a stream of dry argon at room temperature, and the sample was stored under argon at −80° C. before being analyzed using LC-MS/MS.
The resulting mixture was sonicated for 5 min followed by the addition of PLA2 enzyme (50 μl of 10,000 units/ml). […]
Direct infusion MS and LC-MS/MS were performed on a Quattro Ultima triple-quadrupole mass spectrometer (Micromass, Wythenshawe, UK). […] The total ion current was measured in the mass-to-charge ratio (m/z) range of 50-900 at 30 V of cone energy in the negative ion mode with a 3.5-kV electrospray capillary voltage, 60-V cone voltage, 120° C. source temperature, 250° C. desolvation temperature, 65 L/h cone gas flow, and 658 L/h desolvation gas flow. […] All retention times of analytes shown in MRM spectra were recorded relative to the internal standard (iso[4]LGE2-D31-lysoPE-HL, 11.83 min). […]

Structure (SMILES)	stability constant log K of EDTA complex [1]	stability constant log K of EDTA complex [2]	stability constant log K of EDTA complex [3]	hepatic triglycerides [4]	adducts of iso[4]LGE2 in liver compared to pair-fed animals [5] [fold]	TNF-α in mouse liver [6]	4-HNE, LGE2 and iso[4]LGE2-protein adducts in liver [7]	hepatic CYP2E1 expression [8]	plasma ALT [9]	isoLG-lysoPE-HL liver levels compared to pair-fed mice [10]
O=C(O)CN(CCN(CC(=O)O)CC(=O)O)CC(=O)O [EDTA, ethylenediaminetetraacetic acid]	10.7	18.8	25.1							
CCO [ethanol]				increased at 4 and 6%	2	biphasic induction	increased only at 6% ethanol feeding	increased over time	increased at 4 and 6%	Twofold higher
